Measured values published in the Kinase Knowledgebase extract (Sharma et al. 2016).

Molecular target: EGFR (UniProt P00533)
Sequence (P00533 whole entry, looked up): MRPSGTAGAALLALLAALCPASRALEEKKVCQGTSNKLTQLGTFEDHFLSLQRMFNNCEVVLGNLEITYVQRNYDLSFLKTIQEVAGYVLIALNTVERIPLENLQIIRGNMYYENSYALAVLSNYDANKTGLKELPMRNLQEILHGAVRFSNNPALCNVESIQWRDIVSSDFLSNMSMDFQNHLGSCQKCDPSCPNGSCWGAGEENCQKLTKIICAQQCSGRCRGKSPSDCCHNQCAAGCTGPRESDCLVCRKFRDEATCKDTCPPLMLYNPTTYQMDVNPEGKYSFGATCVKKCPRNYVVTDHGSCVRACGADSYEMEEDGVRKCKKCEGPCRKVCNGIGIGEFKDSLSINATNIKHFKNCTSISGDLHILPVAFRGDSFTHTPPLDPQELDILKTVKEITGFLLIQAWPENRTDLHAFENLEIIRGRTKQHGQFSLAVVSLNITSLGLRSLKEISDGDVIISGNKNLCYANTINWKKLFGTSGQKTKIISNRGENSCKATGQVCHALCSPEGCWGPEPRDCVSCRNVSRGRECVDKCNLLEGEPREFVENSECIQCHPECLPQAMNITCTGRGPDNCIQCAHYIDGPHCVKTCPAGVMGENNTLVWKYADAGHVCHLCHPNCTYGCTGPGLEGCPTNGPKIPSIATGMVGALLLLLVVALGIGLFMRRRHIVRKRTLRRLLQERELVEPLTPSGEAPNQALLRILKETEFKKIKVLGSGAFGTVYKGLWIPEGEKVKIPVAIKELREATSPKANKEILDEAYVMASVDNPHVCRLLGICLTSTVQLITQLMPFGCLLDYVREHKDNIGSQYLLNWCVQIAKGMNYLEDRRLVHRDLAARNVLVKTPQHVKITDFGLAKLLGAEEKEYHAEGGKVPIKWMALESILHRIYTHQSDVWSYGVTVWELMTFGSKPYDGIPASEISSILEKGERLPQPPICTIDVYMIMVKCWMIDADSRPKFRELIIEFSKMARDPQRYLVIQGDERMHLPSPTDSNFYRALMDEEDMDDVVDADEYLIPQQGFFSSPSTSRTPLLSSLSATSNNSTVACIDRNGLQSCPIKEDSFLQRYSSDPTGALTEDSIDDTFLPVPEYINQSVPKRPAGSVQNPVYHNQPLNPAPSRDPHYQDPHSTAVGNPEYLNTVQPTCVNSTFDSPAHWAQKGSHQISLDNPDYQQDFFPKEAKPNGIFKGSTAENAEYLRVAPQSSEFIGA

| Compound | IC50 [nM] |
| --- | --- |
| O=C1Nc2ccc(NC3CCNCC3)cc2/C1=C(\c1cccc(F)c1)c1ncc[nH]1 | > 5000 |
| CCN1CCC(Nc2ccc3c(c2)/C(=C(\c2cc(F)cc(F)c2)c2nc(C)c[nH]2)C(=O)N3)CC1 | 50 to 500 |
| COCCN1CCC(Nc2ccc3c(c2)/C(=C(\c2ccc(C(F)(F)F)c(F)c2)c2ncc[nH]2)C(=O)N3)CC1 | > 5000 |
| CCN1CCC(Nc2ccc3c(c2)/C(=C(\c2ccc(C(F)(F)F)cc2)c2ncc[nH]2)C(=O)N3)CC1 | 500 to 5000 |
| CCN1CCC(Nc2ccc3c(c2)/C(=C(/c2ncc[nH]2)c2cc(F)c(Cl)cc2Cl)C(=O)N3)CC1 | 50 to 500 |
| O=C1Nc2ccc(NC3CCN(CCN4CCCCC4)CC3)cc2/C1=C(\c1cccc(F)c1)c1ncc[nH]1 | > 5000 |
| COCCN1CCC(Oc2ccc3c(c2)/C(=C(\c2cccc(Cl)c2)c2nc4ccccc4[nH]2)C(=O)N3)CC1 | 50 to 500 |
| CCN1CCC(Nc2ccc3c(c2)/C(=C(\c2cc(F)cc(F)c2)c2ncc[nH]2)C(=O)N3)CC1 | 50 to 500 |
| COCCN1CCC(Nc2ccc3c(c2)/C(=C(\c2ccc(C(F)(F)F)cc2)c2ncc[nH]2)C(=O)N3)CC1 | > 5000 |
| COCCN1CCC(Oc2ccc3c(c2)/C(=C(\c2cc(F)cc(F)c2)c2nc4ccccc4[nH]2)C(=O)N3)CC1 | 500 to 5000 |
| CCOC(=O)c1[nH]c(/C(=C2\C(=O)Nc3ccc(NC4CCN(CCOC)CC4)cc32)c2cccc(F)c2)nc1C | > 5000 |
| CCCc1ccc(/C(=C2/C(=O)Nc3ccc(NC4CCN(CCOC)CC4)cc32)c2ncc[nH]2)cc1 | 50 to 500 |
| CCN1CCC(Nc2ccc3c(c2)/C(=C(\c2cccc(C(F)(F)F)c2)c2nc(C)c[nH]2)C(=O)N3)CC1 | 500 to 5000 |
| CCN1CCC(Nc2ccc3c(c2)/C(=C(/c2nc(C)c[nH]2)c2ccc(F)cc2F)C(=O)N3)CC1 | 50 to 500 |
| COCCN1CCC(Nc2ccc3c(c2)/C(=C(\c2cccc(F)c2)c2nc(-c4ccccc4)c[nH]2)C(=O)N3)CC1 | 50 to 500 |
| COCCN1CCC(Nc2ccc3c(c2)/C(=C(\c2cccc(F)c2)c2ncn[nH]2)C(=O)N3)CC1 | > 5000 |
| CCN1CCC(Nc2ccc3c(c2)/C(=C(\c2ccc(C(F)(F)F)cc2)c2nc(C)c[nH]2)C(=O)N3)CC1 | 50 to 500 |
| COCCN1CCC(Nc2ccc3c(c2)/C(=C(\c2cccc(F)c2)c2ncc[nH]2)C(=O)N3)CC1 | 50 to 500 |
| O=C1Nc2ccc(NC3CC4CCC(C3)N4)cc2/C1=C(\c1ccccc1)c1nc2ccccc2[nH]1 (stereo not given) | 500 to 5000 |
| CCN1CCC(Nc2ccc3c(c2)/C(=C(\c2ccc(C(F)(F)F)c(F)c2)c2ncc[nH]2)C(=O)N3)CC1 | 50 to 500 |
| CCN1CCC(Nc2ccc3c(c2)/C(=C(\c2cccc(F)c2)c2ncn[nH]2)C(=O)N3)CC1 | > 5000 |
| COCCN1CCC(Nc2ccc3c(c2)/C(=C(\c2ccc(C)cc2)c2nc(C)c[nH]2)C(=O)N3)CC1 | 50 to 500 |
| CCN1CCC(Nc2ccc3c(c2)/C(=C(/c2ncc[nH]2)c2ccc(F)cc2F)C(=O)N3)CC1 | 50 to 500 |
| O=C1Nc2ccc(NC3CCN(CCN4CCOCC4)CC3)cc2/C1=C(\c1cccc(F)c1)c1ncc[nH]1 | > 5000 |
| CCN1CCC(Nc2ccc3c(c2)/C(=C(\c2ccccc2)c2nc(CCN4C(=O)c5ccccc5C4=O)c[nH]2)C(=O)N3)CC1 | 500 to 5000 |

Further lines, results first:

| IC50 [nM] | Compound |
| --- | --- |
| 500 to 5000 | CCN1CCC(Nc2ccc3c(c2)/C(=C(\c2ccc(F)c(Cl)c2)c2ncc[nH]2)C(=O)N3)CC1 |
| 500 to 5000 | CCN1CCC(Oc2ccc3c(c2)/C(=C(\c2cccc(Cl)c2)c2nc4ccccc4[nH]2)C(=O)N3)CC1 |
| 50 to 500 | COCCN1CCC(Nc2ccc3c(c2)/C(=C(\c2cccc(F)c2)c2nc4ccccc4[nH]2)C(=O)N3)CC1 |
| 50 to 500 | CCN1CCC(Nc2ccc3c(c2)/C(=C(\c2ccc(C)cc2)c2nc(C)c[nH]2)C(=O)N3)CC1 |
| < 50 | CCN1CCC(Nc2ccc3c(c2)/C(=C(/c2nc(C)c[nH]2)c2ccc(Cl)cc2F)C(=O)N3)CC1 |
| 500 to 5000 | COCCN1CCC(Nc2ccc3c(c2)/C(=C(\c2ccc(F)cc2)c2nc4ccccc4[nH]2)C(=O)N3)CC1 |
| 50 to 500 | CCN1CCC(Nc2ccc3c(c2)/C(=C(/c2ncc[nH]2)c2ccccc2F)C(=O)N3)CC1 |
| 50 to 500 | COCCN1CCC(Nc2ccc3c(c2)/C(=C(\c2ccccc2)c2nc4ccccc4[nH]2)C(=O)N3)CC1 |
| 500 to 5000 | CCN1CCC(Nc2ccc3c(c2)/C(=C(\c2cccc(C(=N)N)c2)c2nc4ccccc4[nH]2)C(=O)N3)CC1 |
| 500 to 5000 | CCN1CCC(Nc2ccc3c(c2)/C(=C(\c2ccc(F)c(F)c2)c2ncc[nH]2)C(=O)N3)CC1 |
| 50 to 500 | CCN1CCC(Nc2ccc3c(c2)/C(=C(\c2ccc(F)c(Cl)c2)c2nc(C)c[nH]2)C(=O)N3)CC1 |
| 50 to 500 | CCN1CCC(Nc2ccc3c(c2)/C(=C(\c2ccc(C)cc2)c2ncc[nH]2)C(=O)N3)CC1 |
| < 50 | CCN1CCC(Nc2ccc3c(c2)/C(=C(\c2ccc(C)c(F)c2)c2nc4ccccc4[nH]2)C(=O)N3)CC1 |
| 50 to 500 | CCN1CCC(Nc2ccc3c(c2)/C(=C(\c2ccc(Cl)cc2)c2nc4ccccc4[nH]2)C(=O)N3)CC1 |
| 500 to 5000 | CCN1CCC(Oc2ccc3c(c2)/C(=C(\c2cccc(OC)c2)c2nc4ccccc4[nH]2)C(=O)N3)CC1 |
| 500 to 5000 | COCCN1CCC(Nc2ccc3c(c2)/C(=C(\c2cccc(OC)c2)c2nc4ccccc4[nH]2)C(=O)N3)CC1 |
| 500 to 5000 | CCN1CCCC(Nc2ccc3c(c2)/C(=C(\c2ccccc2)c2nc4cc(OC)ccc4[nH]2)C(=O)N3)C1 (stereo not given) |
| 50 to 500 | CCN1CCC(Nc2ccc3c(c2)/C(=C(\c2ccc(Cl)cc2)c2nc(C)c[nH]2)C(=O)N3)CC1 |
| < 50 | CCN1CCC(Nc2ccc3c(c2)/C(=C(\c2ccc(F)c(F)c2)c2nc(C)c[nH]2)C(=O)N3)CC1 |
| 50 to 500 | CCCc1ccc(/C(=C2/C(=O)Nc3ccc(NC4CCN(CC)CC4)cc32)c2ncc[nH]2)cc1 |
